Results as given in ChEMBL document CHEMBL1145738, “Peptidyl aldehyde inhibitors of calpain incorporating P2-proline mimetics” (Bioorg Med Chem Lett, 2003).
pKi: −log10 of the molar value. Non-standard residues stand in square brackets, D forms with d. Residues, ends and D or L forms follow the SMILES beside them. ξ: configuration not given here. *: point of attachment. Tos = Cc1ccc(S(=O)(=O)*)cc1; ξF = NC(Cc1ccccc1)C(=O)O; Pip = O=C(O)[CH]1CCCCN1; Aze = O=C(O)[CH]1CCN1

How the values were obtained:
[1] = molecular target: T1, Calpain small subunit 1 (Sus scrofa, UniProt P04574); assay: Compound tested for inhibition of porcine Calpain 1
T1 sequence (P04574 whole entry): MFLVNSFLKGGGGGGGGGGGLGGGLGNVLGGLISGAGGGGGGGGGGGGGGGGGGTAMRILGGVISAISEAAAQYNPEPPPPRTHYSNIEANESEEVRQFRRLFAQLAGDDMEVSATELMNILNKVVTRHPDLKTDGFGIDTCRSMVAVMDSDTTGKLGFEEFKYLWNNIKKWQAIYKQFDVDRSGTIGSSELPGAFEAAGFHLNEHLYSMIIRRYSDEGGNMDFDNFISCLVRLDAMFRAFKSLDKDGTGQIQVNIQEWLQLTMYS

[2] = molecular target: T2, Cathepsin B (Homo sapiens, UniProt P07858); assay: Compound tested for inhibition of human liver cathepsin B
[3] = molecular target: T2, Cathepsin B; assay: (§1) Selectivity ratio of cathepsin B to calpain I
[4] = molecular target: T1, Calpain small subunit 1; assay: Compound tested for inhibition of porcine calpain I
[5] = as §1
[6] = molecular target: T2, Cathepsin B; assay: Compound tested for inhibition of human liver Cathepsin B

Row | pKi [1] | pKi [2] | Selectivity ratio [3] | pKi [4] | Selectivity ratio [5] | pKi [6] | SMILES
1 | 7.15 | – | – | – | – | – | Cc1ccc(S(=O)(=O)N2CCSC2C(=O)NC(C=O)Cc2ccccc2)cc1 (stereo not drawn)
2 | 6.60 | – | – | – | 11 | 5.56 | Cc1ccc(S(=O)(=O)N2CCC2C(=O)NC(C=O)Cc2ccccc2)cc1 (stereo not drawn) (Tos-[Aze]-Phe-aldehyde; configuration not given here)

Further lines, the compound ahead of its results:

Row | SMILES | pKi [1] | pKi [2] | Selectivity ratio [3] | pKi [4] | Selectivity ratio [5] | pKi [6]
3 | Cc1ccc(S(=O)(=O)N2CCCCC2C(=O)NC(C=O)Cc2ccccc2)cc1 (stereo not drawn) (Tos-[Pip]-Phe-aldehyde; configuration not given here) | – | 5.28 | 10 | 6.27 | – | –
4 | Cc1ccc(S(=O)(=O)N[C@@H](CC(C)C)C(=O)NC(C=O)Cc2ccccc2)cc1 (stereo partly drawn) (Tos-Leu-[ξF]-aldehyde) | – | 7.15 | 4 | 7.70 | – | –
5 | Cc1ccc(S(=O)(=O)N2CCCC2C(=O)NC(C=O)Cc2ccccc2)cc1 (stereo not drawn) (Tos-Pro-Phe-aldehyde; configuration not given here) | 7.10 | – | – | – | 151 | 4.92
